Test results reported in patent US5976523A, “Method for healing compromised tissues using pyrimidine derivatives” (Mitsui Pharmaceuticals, Inc., priority 1995, dated 1999).
Structures can show the parent of a compound that is named as a salt.

What was measured:
TMK1 cells [1] = test: Morphological change of TMK1 cells; format: cell-based
PDGF-A mRNAs = test: Polysome distribution (translation) of PDGF-A mRNAs in rat SMCs; format: cell-based
Protocol: SMCs were prepared following the method proposed by Ross and Klebanoff in "J. Cell. […] A rat thoracic aorta was excised. After the tunica externa was peeled off, the tunica media and the tunica intima were minced into 2-3 mm^2. The minced sections were placed standstill in a 25-cm^2 flask which contained Waymouth's MB 752/1 medium containing 10% FBS and 80 ng/ml of gentamycin (product of Schering-Plough Corp.), followed by incubation at 37° C. for 2 to 3 weeks in the presence of 5% carbon dioxide gas (primary culture). The same volume of a trypsin-EDTA solution was added to the flask. After the sections were treated at 37° C. for 5 minutes to peel off cells, the cells were diluted with 10% FBS-Waymouth's MB 752/1 medium and then subcultured (second generation). Subculture was successively conducted likewise whenever the SMC became confluent. In the following experiments, the cells from the 5th generation to the 12th generation were employed. After reach in confluence of cells, the cultured SMCs were cultured for 2 days in a serum-free medium to avoid influence of serum. The SMCs were then added with thrombin (1.0 U/ml) or serotonin (5 μM), followed by incubation at 37° C. for 6 hours under which bring about induction of PDGF-A mRNAs at the maximum. To prevent dissociation of ribosomes and mRNAs, cycloheximide (100 μg/ml) was added 5 minutes before cells were collected. […] Biol. Chem.", 267, 508 ff, 1992 with slight modifications. The cells, which had been collected by the treatment with trypsin, were washed with PBS containing cycloheximide (100 μg/ml). A cell precipitate was then added with 500 μl of a high-salt lysis buffer (20 mM Tris-HCl pH 7.5, 250 mM NaCl, 5 mM MgCl2, 0.1% Noni det P-40, 0.2% DOC) for homogenization. The homogenate was centrifuged under 12,000×g at 4° C. for 10 minutes. The resulting supernatant was added with 67 μl of a heparine mix (7.4 mg/ml heparine, 1.1M NaCl, 15 mM DTT and RNasin). 200 μl of the extract were layered on 5 ml of 0.5-1.25M linear sucrose gradient (which contained 20 mM Tris-HCl pH 7.4, 10 mM NaCl, 3 mM MgCl2), followed by centrifugation under 45,000 rpm for 90 minutes in a "Hitachi […]". While monitoring the absorbance at 260 nm, ten (10) fractions were obtained. […] Subsequent to incubation at 37° C. for 1 hour, each fraction was extracted once with 1/2 volume of phenol, twice with 1/2 volume aliquots of chloroform, and once with the equal volume of chloroform, whereby proteins were removed. The water layer was added with glycogen (20 μg/ml) as a coprecipitant and then with 0.03M of sodium acetate, and RNAs were caused to precipitate with 2 volumes of ethanol. After RNAs were incubated at 65° C. for 5 minutes in a solution containing 60% of formamide, 5.9% of formaldehyde and the equal volume of MOPS buffer (10 mM MOPS pH 7.0, 4 mM NaOAc, 0.5 mM EDTA), electrophoresis was conducted across 1.2% agarose gels containing the equal volume of MOPS buffer so that RNAs were. isolated. After the gel was washed with 20 volumes of SSC, RNAs were blotted overnight to a Gene Screen Plus membrane by the capillary method. Fixing of the RNAs was conducted by exposing them for 1 minute at a distance of 10 cm from […]. Using a "QuickHyb Hybridization Solution" (product of Strategene Ltd.), hybridization was conducted following the instruction manual attached to the solution. Results of autoradiography were quantitated with reference to the NIH Image. […]

TMK1 cells [2] = test: TMK1 cell migration in Boyden's chamber; format: cell-based; conditions: 4 hours
Protocol: TMK1 cells, low-differentiating epithelial cells, were treated with trypsin. […] The culture medium in the lower well was then subjected to fixing and staining, and cells which had migrated therein were counted. Experiments were conducted concurrently in three chambers.
Each value will be presented as a mean ±S.D. and with respect to each compound, numbers of cells will be presented in the order of a) control, b) each pyrimidine compound (whose concentration will be specifically indicated), c) 10 ng/ml of EGF, and d) a mixed solution of each pyrimidine compound + EGF.

[3] = tested on: primary cultured gastric mucosal cells; test: Wound repair model with primary cultured gastric mucosal cells; format: cell-based, rabbit
Protocol: Primary cultured gastric mucosal cells were prepared by mechanically peeling and mincing the gastric mucosa of a rabbit having a body weight of 2 kg and then digesting the minced gastric mucosa with 0.07% collagenase. The primary cultured gastric mucosal cells were cultured at a cell concentration of 3.3×10^5 cells/ml in F-12 culture medium containing 10% fetal calf serum added therein. For this cultivation, a culture dish (60 mm in diameter) coated with collagen type I was used. […] Using an anti-BrdU antibody, the cells in the S phase were stained to identify proliferated cells.
Their effects on the process of restoration were measured under the above-described parameters. […] In each of the control group and the medicament-added groups, the area of the wounded region was measured at the 0th hour, 12th hour, 24th hour, 36th hour and 48th hour. The measurement results will be given in this order.
The control group and the groups added with the medicament at the respective concentrations were each subjected to the experiment with n=5. The results will each be presented as a (mean±S. D.) mm2. A test of significance was conducted relative to the control group. * stands for p<0.05, ** for p<0.01, *** for p<0.001. A further test of significance was conducted relative to a group added with 10 ng/ml of EGF. + stands for p<0.05, and ++ for <0.01.

`CN1Cc2nc(N3CCNCC3)ncc2C1=O` [Compound B, 2-piperazino-6-methyl-5-oxo-5,6-dihydro(7H)pyrro[3,4-d]pyrimidine maleate] was tested, and the “time of sprouting of the process of the cells similar to neurites” value (TMK1 cells [1]; EGF and compound) was 8 h, the morphological changes (TMK1 cells [1]; EGF and compound, compared with EGF alone) was “still more marked intensive morphological changes” and the “network formation of cell processes” value (TMK1 cells [1]; EGF and compound, day 1) was “forming a dense network on day 1”. The morphological changes (TMK1 cells [1]; singly added, 1 mM, fifth hour to day 1) was “only slight morphological changes”, the “morphological changes after removal of the test agent” value (TMK1 cells [1]; test agent removed) was “these morphological changes disappeared” and the “translation state of 1.3 kb PDGF-A mRNAs” value (PDGF-A mRNAs; compound) was “in a translated form”. For the same compound, the “translation state of 1.7 kb PDGF-A mRNAs” value (PDGF-A mRNAs; compound, serum-free medium) was “converted into a translated form”, the “translation state of PDGF-A mRNAs” value (PDGF-A mRNAs; thrombin + compound) was “converted into a translated form” and the “numbers of cells counted (migrated), mean ±S.D.” value (TMK1 cells [2]; compound 1 mM + EGF 10 ng/ml) was 111.2±8.0. For the same compound, the “numbers of cells counted (migrated), mean ±S.D.” value (TMK1 cells [2]; compound alone, 1 mM) was 7.4±3.0, the “area of the wounded region (mean±S.D.)” value ([3]; EGF + 0.01 mM compound, 0th hour) was 2.06±0.04 mm2 and the “area of the wounded region (mean±S.D.)” value ([3]; EGF + 0.01 mM compound, 12th hour) was 0.92±0.05 mm2. For the same compound, the “area of the wounded region (mean±S.D.)” value ([3]; EGF + 0.01 mM compound, 24th hour) was 0.38±0.05 mm2, the “area of the wounded region (mean±S.D.)” value ([3]; EGF + 0.01 mM compound, 36th hour) was 0.07±0.04 mm2 and the “area of the wounded region (mean±S.D.)” value ([3]; EGF + 0.01 mM compound, 48th hour) was 0 mm2. For the same compound, the “area of the wounded region (mean±S.D.)” value ([3]; EGF + 0.1 mM compound, 0th hour) was 2.06±0.04 mm2, the “area of the wounded region (mean±S.D.)” value ([3]; EGF + 0.1 mM compound, 12th hour) was 0.83±0.05 mm2 and the “area of the wounded region (mean±S.D.)” value ([3]; EGF + 0.1 mM compound, 24th hour) was 0.29±0.07 mm2. For the same compound, the “area of the wounded region (mean±S.D.)” value ([3]; EGF + 0.1 mM compound, 36th hour) was 0 mm2, the “area of the wounded region (mean±S.D.)” value ([3]; EGF + 0.1 mM compound, 48th hour) was 0 mm2 and the “effect on EGF-induced acceleration of cell restoration” value ([3]; compound 0.01-0.1 mM with EGF) was “further promoted the EGF-induced acceleration of cell restoration in a concentration-dependent fashion”. For the same compound, the repairing effects ([3]; compound alone 0.01-0.1 mM, absence of EGF) was “did not show repairing effects in the absence of EGF”.
